Assays:
HAP1 MTAP-intact = experiment: SDMA in-cell western assay, HAP1 MTAP-intact cell line; type: cell-based; details: Homo sapiens
In short: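 Cells from two matched HAP1 lines, MTAP-null and MTAP-expressing at endogenous levels, are treated with compound. SDMA is then quantified by in-cell western and an IC50 is calculated for each line.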

PRMT5 [1] = molecular target: T1, PRMT5 (Homo sapiens, UniProt O14744); experiment: PRMT5 IC50 assay in the presence of SAM as cofactor; type: biochemical
T1 construct: purchased Viva (custom protein)
T1 sequence (O14744 whole entry): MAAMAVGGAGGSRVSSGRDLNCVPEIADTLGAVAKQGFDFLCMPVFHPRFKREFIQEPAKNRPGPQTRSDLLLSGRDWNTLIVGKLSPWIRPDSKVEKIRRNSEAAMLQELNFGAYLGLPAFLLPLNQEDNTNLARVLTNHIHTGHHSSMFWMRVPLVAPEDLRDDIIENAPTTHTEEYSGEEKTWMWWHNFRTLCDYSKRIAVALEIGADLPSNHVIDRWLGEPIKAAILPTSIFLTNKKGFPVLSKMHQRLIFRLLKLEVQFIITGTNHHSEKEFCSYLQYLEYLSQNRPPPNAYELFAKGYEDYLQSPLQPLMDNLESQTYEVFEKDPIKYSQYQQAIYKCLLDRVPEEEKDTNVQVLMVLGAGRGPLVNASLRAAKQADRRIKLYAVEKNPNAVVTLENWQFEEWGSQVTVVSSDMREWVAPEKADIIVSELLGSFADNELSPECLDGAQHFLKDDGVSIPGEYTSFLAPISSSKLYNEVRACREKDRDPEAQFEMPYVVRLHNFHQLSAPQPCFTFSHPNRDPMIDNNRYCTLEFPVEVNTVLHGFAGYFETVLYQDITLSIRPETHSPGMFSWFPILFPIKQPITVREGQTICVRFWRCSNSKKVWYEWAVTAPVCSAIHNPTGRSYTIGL
T1 sequence (Q9BQA1 whole entry partner): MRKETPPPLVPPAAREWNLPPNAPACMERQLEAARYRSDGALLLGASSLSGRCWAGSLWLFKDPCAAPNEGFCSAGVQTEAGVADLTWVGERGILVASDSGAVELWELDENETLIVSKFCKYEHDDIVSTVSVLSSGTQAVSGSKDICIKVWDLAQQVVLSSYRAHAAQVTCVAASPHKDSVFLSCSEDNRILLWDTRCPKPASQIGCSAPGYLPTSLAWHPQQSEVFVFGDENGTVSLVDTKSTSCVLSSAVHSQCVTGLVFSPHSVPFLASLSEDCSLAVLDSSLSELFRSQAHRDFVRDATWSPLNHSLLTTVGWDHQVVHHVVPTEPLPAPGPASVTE
In short: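 Each compound is tested on PRMT5 in the presence of SAM, of MTA, and without any cofactor. Ki values are then back-calculated using fixed factors of 1.5 (SAM) and 13.5 (MTA), and the two Ki values are compared as a ratio.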

HAP1 MTAP-deleted = experiment: SDMA in-cell western assay, HAP1 MTAP-deleted cell line; type: cell-based; details: for IC50: Homo sapiens, HAP1 MTAP-deleted cell line; for MTAP Intact/Deleted Ratio: IC50 ratio HAP1 MTAP-intact / HAP1 MTAP-deleted
In short: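 MTAP-null HAP1 cells, the deleted member of an isogenic pair with endogenously MTAP-expressing HAP1, are treated with compound. SDMA is then quantified by in-cell western and an IC50 is calculated.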

PRMT5 [2] = molecular target: T1, PRMT5; experiment: PRMT5 IC50 assay with no cofactor; type: biochemical
In short: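 Results given as IC50 (μM), from which Ki follows by dividing by 1.5 in the SAM condition or by 13.5 in the MTA condition. The ratio of SAM Ki to MTA Ki indicates MTA-cooperative preference.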

PRMT5 [3] = molecular target: T1, PRMT5; experiment: PRMT5 IC50 assay in the presence of MTA as cofactor; type: biochemical; details: for IC50: PRMT5, MTA as cofactor
In short: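 Ki conversion: SAM arm, Ki=IC50/1.5; MTA arm, Ki=IC50/13.5. No-cofactor arm reported as IC50 only. Selectivity expressed as Ki(SAM)/Ki(MTA).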

[4] = ratio between the Ki in the presence of SAM and the Ki in the presence of MTA
[5] = ratio between Ki in the presence of SAM and Ki in the presence of MTA

| SMILES | IC50 (HAP1 MTAP-intact) | IC50 (PRMT5 [1]) | IC50 (HAP1 MTAP-deleted) | MTAP Intact/Deleted Ratio (HAP1 MTAP-deleted) | IC50 (PRMT5 [2]) | IC50 (PRMT5 [3]) | SAM/MTA Ratio (PRMT5 [3]; [4]) | IC50 (PRMT5 [2]; read-out: No Co-factor IC50) | SAM/MTA Ratio (PRMT5 [3]; [5]) |
| --- | --- | --- | --- | --- | --- | --- | --- | --- | --- |
| Cc1ncoc1COc1ccc2c(c1C)CCN(C[C@@H](O)CNC(=O)c1cc(NC3CCC3)nc(N3CCN(C(C)C)CC3)c1)C2 [Compound 539, 2-(cyclobutylamino)-N-[(2S)-2-hydroxy-3-{5-methyl-6-[(4-methyl-1,3-oxazol-5-yl)methoxy]-1,2,3,4-tetrahydroisoquinolin-2-yl}propyl]-6-[4-(propan-2-yl)piperazin-1-yl]pyridine-4-carboxamide] | ≥ 10000 nM | 50 to 500 nM | ≥ 10000 nM | C* (an IC50 ratio of less than 3 fold between the IC50 in the HAP1 MTAP-intact cell line and the HAP1 MTAP-deleted cell line) | 500 to 5000 nM | 50 to 500 nM | A (a Ki ratio greater than or equal to 10 fold between the Ki in the presence of SAM and the Ki in the presence of MTA) | – | – |
| Cc1ncoc1COc1ccc2c(c1)CCN(C[C@@H](O)CNC(=O)c1cc(NC3CCC3)ncn1)C2 [Compound 374, 6-(cyclobutylamino)-N-[(2S)-2-hydroxy-3-{6-[(4-methyl-1,3-oxazol-5-yl)methoxy]-1,2,3,4-tetrahydroisoquinolin-2-yl}propyl]pyrimidine-4-carboxamide] | 1000 to 10000 nM | 50 to 500 nM | < 1000 nM | C* (an IC50 ratio of less than 3 fold between the IC50 in the HAP1 MTAP-intact cell line and the HAP1 MTAP-deleted cell line) | – | 50 to 500 nM | – | ≥ 5000 nM | A (a Ki ratio greater than or equal to 10 fold between the Ki in the presence of SAM and the Ki in the presence of MTA) |
| COc1cc(C(=O)NC[C@H](O)CN2CCc3c(ccc(OCc4cnco4)c3Cl)C2)cc(NC2CCC2)n1 [Compound 302, (S)—N-(3-(5-chloro-6-(oxazol-5-ylmethoxy)-3N-dihydroisoquinolin-2(1H)-yl)-2-hydroxypropyl)-2-(cyclobutylamino)-6-methoxyisonicotinamide] | ≥ 10000 nM | 500 to 5000 nM | ≥ 10000 nM | C* (an IC50 ratio of less than 3 fold between the IC50 in the HAP1 MTAP-intact cell line and the HAP1 MTAP-deleted cell line) | – | 50 to 500 nM | – | ≥ 5000 nM | A (a Ki ratio greater than or equal to 10 fold between the Ki in the presence of SAM and the Ki in the presence of MTA) |
| CC(=O)N1CCC(Nc2cc(C(=O)NC[C@H](O)CN3CCc4cc(OCc5ccnn5C)ccc4C3)ncn2)CC1 [Compound 140, 6-[(1-acetyl-4-piperidyl)amino]-N-[(2S)-2-hydroxy-3-[6-[(2-methylpyrazol-3-yl)methoxy]-3N-dihydro-1H-isoquinolin-2-yl]propyl]pyrimidine-4-carboxamide] | ≥ 10000 nM | 500 to 5000 nM | ≥ 10000 nM | C* (an IC50 ratio of less than 3 fold between the IC50 in the HAP1 MTAP-intact cell line and the HAP1 MTAP-deleted cell line) | – | 50 to 500 nM | – | ≥ 5000 nM | A (a Ki ratio greater than or equal to 10 fold between the Ki in the presence of SAM and the Ki in the presence of MTA) |
| CC(C)C(=O)N1CCC(Nc2cc(C(=O)NC[C@H](O)CN3CCc4c(ccc(OCc5cnco5)c4Cl)C3)ccn2)CC1 [Compound 452] | ≥ 10000 nM | 50 to 500 nM | 1000 to 10000 nM | B* (an IC50 ratio greater than or equal to 3 fold but lower than 10 fold between the IC50 in the HAP1 MTAP-intact cell line and the HAP1 MTAP-deleted cell line) | 500 to 5000 nM | 50 to 500 nM | A (a Ki ratio greater than or equal to 10 fold between the Ki in the presence of SAM and the Ki in the presence of MTA) | – | – |
| CC(C)N1CCN(c2nc(NC3COC3)cc(C(=O)NC[C@H](O)CN3CCc4c(ccc(OCc5cnco5)c4Cl)C3)n2)CC1 [Compound 293, (S)—N-(3-(5-chloro-6-(oxazol-5-ylmethoxy)-3N-dihydroisoquinolin-2(1H)-yl)-2-hydroxypropyl)-2-(4-isopropylpiperazin-1-yl)-6-(oxetan-3-ylamino)pyrimidine-4-carboxamide] | ≥ 10000 nM | 500 to 5000 nM | ≥ 10000 nM | C* (an IC50 ratio of less than 3 fold between the IC50 in the HAP1 MTAP-intact cell line and the HAP1 MTAP-deleted cell line) | – | 50 to 500 nM | – | 500 to 5000 nM | A (a Ki ratio greater than or equal to 10 fold between the Ki in the presence of SAM and the Ki in the presence of MTA) |
| CC(=O)N1CC(Nc2cc(C(=O)NC[C@H](O)CN3CCc4c(ccc(OCc5ocnc5C)c4C)C3)nc(C(C)C)n2)C1 [Compound 575, (S)-6-((1-acetylazetidin-3-yl)amino)-N-(2-hydroxy-3-(5-methyl-6-((4-methyloxazol-5-yl)methoxy)-3A-dihydroisoquinolin-2(1H)-yl)propyl)-2-isopropylpyrimidine-4-carboxamide] | ≥ 10000 nM | 50 to 500 nM | 1000 to 10000 nM | B* (an IC50 ratio greater than or equal to 3 fold but lower than 10 fold between the IC50 in the HAP1 MTAP-intact cell line and the HAP1 MTAP-deleted cell line) | ≥ 5000 nM | 50 to 500 nM | A (a Ki ratio greater than or equal to 10 fold between the Ki in the presence of SAM and the Ki in the presence of MTA) | – | – |
| Cc1c(OCc2cnco2)ccc2c1CCN(C[C@@H](O)CNC(=O)c1cc(N[C@H]3CC[C@H](C(=O)N4CCCCC4)CC3)ncn1)C2 [Compound 589, N-[(2S)-2-hydroxy-3-{5-methyl-6-[(1,3-oxazol-5-yl)methoxy]-1,2,3,4-tetrahydroisoquinolin-2-yl}propyl]-6-{((1r,4r)-4-(piperidine-1-carbonyl)cyclohexyl]amino}pyrimidine-4-carboxamide] | ≥ 10000 nM | 50 to 500 nM | < 1000 nM | A* (an IC50 ratio greater than or equal to 10 fold between the IC50 in the HAP1 MTAP-intact cell line and the HAP1 MTAP-deleted cell line) | 500 to 5000 nM | 50 to 500 nM | A (a Ki ratio greater than or equal to 10 fold between the Ki in the presence of SAM and the Ki in the presence of MTA) | – | – |
| CCCC(=O)N1CCC(Nc2cc(C(=O)NC[C@H](O)CN3CCc4c(ccc(OCc5cnco5)c4C)C3)ncn2)CC1 [Compound 560, 6-[(1-butanoylpiperidin-4-yl)amino]-N-[(2S)-2-hydroxy-3-{5-methyl-6-[(1,3-oxazol-5-yl)methoxy]-1,2,3,4-tetrahydroisoquinolin-2-yl}propyl]pyrimidine-4-carboxamide] | ≥ 10000 nM | 50 to 500 nM | 1000 to 10000 nM | B* (an IC50 ratio greater than or equal to 3 fold but lower than 10 fold between the IC50 in the HAP1 MTAP-intact cell line and the HAP1 MTAP-deleted cell line) | 500 to 5000 nM | 50 to 500 nM | A (a Ki ratio greater than or equal to 10 fold between the Ki in the presence of SAM and the Ki in the presence of MTA) | – | – |
| CC(=O)N1CCC(Nc2cc(C(=O)NC[C@H](O)CN3CCc4c(ccc(OCc5ccnn5C)c4Cl)C3)ncn2)CC1 [Compound 242, (S)-6-((1-acetylpiperidin-4-yl)amino)-N-(3-(5-chloro-6-((1-methyl-1H-pyrazol-5-yl)methoxy)-3,4-dihydroisoquinolin-2(1H)-yl)-2-hydroxypropyl)pyrimidine-4-carboxamide] | ≥ 10000 nM | 500 to 5000 nM | ≥ 10000 nM | C* (an IC50 ratio of less than 3 fold between the IC50 in the HAP1 MTAP-intact cell line and the HAP1 MTAP-deleted cell line) | – | 500 to 5000 nM | – | ≥ 5000 nM | – |
| CCN(C)c1nc(NC2COC2)cc(C(=O)NC[C@H](O)CN2CCc3c(ccc(OCc4cnco4)c3Cl)C2)n1 [Compound 303] | ≥ 10000 nM | 50 to 500 nM | 1000 to 10000 nM | C* (an IC50 ratio of less than 3 fold between the IC50 in the HAP1 MTAP-intact cell line and the HAP1 MTAP-deleted cell line) | – | 50 to 500 nM | – | ≥ 5000 nM | A (a Ki ratio greater than or equal to 10 fold between the Ki in the presence of SAM and the Ki in the presence of MTA) |
| CC(=O)N1CC(Nc2cc(C(=O)NC[C@H](O)CN3CCc4c(ccc(OCc5cnco5)c4Cl)C3)nc(N3CCOCC3)n2)C1 [Compound 352, (S)-6-((1-acetylazetidin-3-yl)amino)-N-(3-(5-chloro-6-(oxazol-5-ylmethoxy)-3A-dihydroisoquinolin-2(1H)-yl)-2-hydroxypropyl)-2-morpholinopyrimidine-4-carboxamide] | ≥ 10000 nM | 50 to 500 nM | 1000 to 10000 nM | C* (an IC50 ratio of less than 3 fold between the IC50 in the HAP1 MTAP-intact cell line and the HAP1 MTAP-deleted cell line) | – | 50 to 500 nM | – | 500 to 5000 nM | A (a Ki ratio greater than or equal to 10 fold between the Ki in the presence of SAM and the Ki in the presence of MTA) |

Source: patent US11986471B2, “Compounds and methods of use” (Tango Therapeutics, Inc., priority 2018, dated 2024)
